Patent EP0326331B1, “Substituted quinolines and cinnolines” (Dow AgroSciences LLC, priority 1988, dated 1989)
Like-named read-outs stand apart in the source and are kept apart here.

How the values were obtained:
Assay type in all cases: in vivo
[1] = tested on: Twospotted spider mites (Tetranychus urticae Koch); assay: Mite/insect screen, SM
Procedure, shortened: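 Compounds dissolved in 50:50 acetone/alcohol containing sulfonate/nonionic emulsifier blends, then diluted with water to the indicated concentrations. Leaves sprayed on both surfaces to runoff at 10 psi and dried one hour. Percent mortality scored after standard exposure periods.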

[2] = tested on: Pseudoperonospora cubensis (downy mildew); assay: Test 1 greenhouse foliar spray screen, downy mildew on squash; conditions: for activity against downy mildew: summary statement in the description
[3] = tested on: Pyricularia oryzae (rice blast); assay: whole plant or invertebrate; conditions: for activity against rice blast: summary statement in the description
Pyrenophora teres = assay: Field tests against plant pathogens; conditions: field test, crop barley
Description: (§1) Selected compounds were field tested against a variety of plant pathogens. […]

corn rootworm = assay: Mite/insect screen, CRW; conditions: percent mortality, read-out: CRW RESULTS %
Procedure, shortened: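 Compounds dissolved in 50:50 acetone/alcohol with TOXIMUL R and S emulsifiers (23 and 13 g/L), then diluted in water to the stated test concentrations. Percent mortality of corn rootworm scored after standard exposure periods.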

[4] = tested on: Erysiphe graminis tritici (powdery mildew); assay: Test 1 greenhouse foliar spray screen, powdery mildew on wheat
[5] = tested on: Botrytis cinerea (gray mold); assay: Test 1 greenhouse foliar spray screen, gray mold on grape berries; conditions: for GRAY MOLD: disease control rating, spray on grape berries, 400 ppm (+++ at 100 ppm); for pest or weed control at 400 ppm: Botrytis cinerea, foliar, Test 1, spray on grape berries, disease control rating at 400 ppm / 100 ppm
[6] = tested on: Septoria tritici (leaf blotch); assay: Test 1 greenhouse foliar spray screen, leaf blotch on wheat; conditions: for LEAF BLOT: disease control rating, foliar spray on wheat, 400 ppm (+++ at 100 ppm); for pest or weed control at 400 ppm: Zymoseptoria tritici, Test 1, foliar spray on wheat, disease control rating at 400 ppm / 100 ppm, read-out: LEAF BLOT
[7] = tested on: melon aphids (Aphis gossypii Glover); assay: Mite/insect screen, MA; conditions: percent mortality
Procedure, shortened: (§2)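 Compounds dissolved in acetone/alcohol (50:50) with TOXIMUL R and S emulsifiers, diluted in water to test concentrations, and sprayed to runoff on both leaf surfaces at 10 psi, then dried 1 h. For armyworm, excised treated leaves were offered to larvae; percent mortality scored after standard exposure periods.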

[8] = tested on: Venturia inaequalis (apple scab); assay: Test 1 greenhouse foliar spray screen, apple scab on apple seedling; conditions: for APPL SCAB: disease control rating, foliar spray on apple seedling, 400 ppm (+++ at 100 ppm); for pest or weed control at 400 ppm: Venturia inaequalis, Test 1, foliar spray on apple seedling, disease control rating at 400 ppm / 100 ppm, read-out: APPL SCAB
Phytophthora infestans = conditions: field test
[9] = tested on: southern armyworm (Spodopetra eridania Cramer); assay: Mite/insect screen, SAW; conditions: percent mortality
Procedure, shortened: as §2

[10] = tested on: Puccinia recondita tritici (leaf rust); assay: Test 1 greenhouse foliar spray screen, leaf rust on wheat
[11] = tested on: Cercospora beticola (leaf spot); assay: Test 1 greenhouse foliar spray screen, leaf spot on sugar beet; conditions: for LEAF SPOT: disease control rating, foliar spray on sugar beet, 400 ppm (+++ at 100 ppm); for pest or weed control at 400 ppm: Cercospora beticola, Test 1, foliar spray on sugar beet, disease control rating at 400 ppm / 100 ppm
[12] = tested on: Pseudocercosporella herpotrichoides; assay: Field tests against plant pathogens; conditions: field test, crop wheat
Description: as §1

[13] = tested on: Erysiphe graminis tritici; assay: Field tests against plant pathogens; conditions: field test, crop wheat
Description: as §1

Sphaerotheca fuliginea = assay: Field tests against plant pathogens; conditions: field test, crop cucumber
Description: as §1

Rhynchosporium secalis = assay: Field tests against plant pathogens; conditions: field test, crop barley
Description: as §1

Plasmopara viticola = assay: Field tests against plant pathogens; conditions: field test, crop grape
Description: as §1

plant pathogens = assay: Fungicidal efficacy against a broad spectrum of plant pathogens (summary of screen); conditions: summary statement in the description
[14] = Tetranychus urticae, percent mortality, SAW, SM & MA RATE 200 PPM, read-out: SM RESULTS %
[15] = disease control rating, foliar spray on squash, 400 ppm (+++ at 100 ppm)
[16] = disease control rating, foliar spray on rice, 400 ppm (+++ at 100 ppm)
[17] = disease control rating, foliar spray on wheat, 400 ppm (+++ at 100 ppm)
[18] = Aphis gossypii, SAW, SM & MA RATE 200 PPM, read-out: MA RESULTS %
[19] = Spodoptera eridania, SAW, SM & MA RATE 200 PPM, read-out: SAW RESULTS %
[20] = Tetranychus urticae, foliar, percent mortality, rate 200 ppm, foliar spray on squash, read-out: SM RESULTS %
[21] = Aphis gossypii, foliar, rate 200 ppm, foliar spray on squash, read-out: MA RESULTS %
[22] = Spodoptera eridania, foliar, rate 200 ppm, foliar spray on squash, read-out: SAW RESULTS %
[23] = Test 1, foliar spray on wheat, disease control rating at 400 ppm / 100 ppm
[24] = rate 400 ppm, foliar spray on squash

Row | SMILES | mortality at 200 ppm [1, 14] [%] | DOWN MDEW [2, 15] | RICE BLAST [3, 16] | pathogens against which compounds of the invention showed activity (Pyrenophora teres) | mortality at 12 ppm (corn rootworm; CRW RATE 12.00 PPM) [%] | POWD MDEW [4, 17] | GRAY MOLD [5] | LEAF BLOT [6] | mortality at 200 ppm [7, 18] [%] | APPL SCAB [8] | mortality at 200 ppm [9, 19] [%] | LEAF RUST [10, 17] | LEAF SPOT [11] | activity against rice blast [3] | pathogens against which compounds of the invention showed activity [12] | pathogens against which compounds of the invention showed activity [13] | pathogens against which compounds of the invention showed activity (Sphaerotheca fuliginea) | pathogens against which compounds of the invention showed activity (Rhynchosporium secalis) | mortality at 12 ppm (corn rootworm; CRW rate 12.00 ppm) [%] | mortality at 200 ppm [9, 22] [%] | other results
1 | c1ccc(CCNc2ccnc3ccccc23)cc1 [Example 2, N-(2-phenylethyl)-4-quinolinamine] | 0 | +++ (90-100% control at 100 ppm) | - (0-19% control at 400 ppm) | Pyrenophora teres | 0 | - (0-19% control at 400 ppm) | - (0-19% control at 400 ppm) | - (0-19% control at 400 ppm) | 0 | - (0-19% control at 400 ppm) | 0 | - (0-19% control at 400 ppm) |  |  |  |  |  |  |  |  | pathogens against which compounds of the invention showed activity (Phytophthora infestans; crop potato): Phytophthora infestans; pathogens against which compounds of the invention showed activity (Phytophthora infestans; crop tomato): Phytophthora infestans
2 | CC(=O)N(CCc1ccc(Cl)cc1)c1ccnc2c(F)cccc12 [Example 10, N-[2-(4-chlorophenyl)ethyl]-N-(8-fluoro-4-quinolinyl)acetamide] | 0 | ++ (90-100% control at 400 ppm) | +++ (90-100% control at 100 ppm) | Pyrenophora teres | 0 | ++ (90-100% control at 400 ppm) | - (0-19% control at 400 ppm) | +++ (90-100% control at 100 ppm) | 0 | - (0-19% control at 400 ppm) | 0 | +++ (90-100% control at 100 ppm) | +++ (90-100% control at 100 ppm) | particularly excellent activity | Pseudocercosporella herpotrichoides | Erysiphe graminis tritici | Sphaerotheca fuliginea | Rhynchosporium secalis |  |  | mortality at 400 ppm ([1]; Tetranychus urticae, percent mortality, SAW, SM & MA RATE 400 PPM, read-out: SM RESULTS %): 0%; mortality at 24 ppm (corn rootworm; CRW RATE 24.00 PPM): 0%; mortality at 400 ppm ([7]; Aphis gossypii, SAW, SM & MA RATE 400 PPM, read-out: MA RESULTS %): 0%; mortality at 400 ppm ([9]; Spodoptera eridania, SAW, SM & MA RATE 400 PPM, read-out: SAW RESULTS %): 0%
3 | Fc1cccc2c(NCCc3ccccc3C(F)(F)F)ccnc12 [Example 97, 8-fluoro-N-[2-[2-(trifluoromethyl)phenyl]ethyl]-4-quinolinamine] | 0 | +++ (90-100% control at 100 ppm) | +++ (90-100% control at 100 ppm) |  | 0 | + (20-89% control at 400 ppm) | - (0-19% control at 400 ppm) | +++ (90-100% control at 100 ppm) | 0 | - (0-19% control at 400 ppm) | 0 | +++ (90-100% control at 100 ppm) | +++ (90-100% control at 100 ppm) |  |  |  |  |  |  |  | activity against downy mildew [2]: particularly excellent activity; pathogens against which compounds of the invention showed activity (Plasmopara viticola): Plasmopara viticola
4 | Fc1cccc2c(NCCc3cccs3)ccnc12 [Example 173, 8-fluoro-N-[2-(2-thienyl)ethyl]-4-quinolinamine] |  | +++ (90-100% control at 100 ppm) | + (20-89% control at 400 ppm) |  |  | + (20-89% control at 400 ppm) | - (0-19% control at 400 ppm) | + (20-89% control at 400 ppm) |  | - (0-19% control at 400 ppm) |  | ++ (90-100% control at 400 ppm) | +++ (90-100% control at 100 ppm) |  |  |  |  |  | 0 | 0 | mortality at 200 ppm [1, 20]: 0%; activity against downy mildew [2]: particularly excellent activity; pathogens against which compounds of the invention showed activity (Plasmopara viticola): Plasmopara viticola; mortality at 200 ppm [7, 21]: 0%
5 | Fc1cccc2c(OCCc3ccc(-c4ccccc4)cc3)ccnc12 [Example 200] |  |  |  | Pyrenophora teres |  |  |  |  |  |  |  |  |  | particularly excellent activity | Pseudocercosporella herpotrichoides | Erysiphe graminis tritici | Sphaerotheca fuliginea | Rhynchosporium secalis | 0 | 0 | SM RESULTS % ([1]; percent mortality, rate 200 ppm, foliar spray on squash): 100%; SM RESULTS % ([1]; percent mortality, rate 400 ppm, foliar spray on squash): 100%; activity as miticides ([1]; summary statement in the description): particularly excellent activity; pest or weed control at 400 ppm [11]: 20 to 89%; DOWN MDEW ([2]; Test 1, foliar spray on squash, disease control rating at 400 ppm / 100 ppm): + (20-89% control at 400 ppm); RICE BLAST ([3]; Test 1, foliar spray on rice, disease control rating at 400 ppm / 100 ppm): +++ (90-100% control at 100 ppm); mortality at 24 ppm (corn rootworm; CRW rate 24.00 ppm): 0%; POWD MDEW [4, 23]: +++ (90-100% control at 100 ppm); pest or weed control at 400 ppm [5]: 0 to 19%; pest or weed control at 400 ppm [6]: 90 to 100%; MA RESULTS % ([7]; rate 200 ppm, foliar spray on squash): 100%; MA RESULTS % [7, 24]: 100%; pest or weed control at 400 ppm [8]: 20 to 89%; SAW RESULTS % [9, 24]: 50%; LEAF RUST [10, 23]: +++ (90-100% control at 100 ppm)
6 | Fc1cccc2c(OCCc3ccccc3)ccnc12 [Example 219, 8-fluoro-4-(2-phenylethoxy)quinoline] |  |  |  | Pyrenophora teres |  |  |  |  |  |  |  |  |  |  | Pseudocercosporella herpotrichoides | Erysiphe graminis tritici | Sphaerotheca fuliginea | Rhynchosporium secalis | 0 | 0 | mortality at 200 ppm [1, 20]: 0%; pest or weed control at 400 ppm [11]: 20 to 89%; pest or weed control at 400 ppm ([2]; Pseudoperonospora cubensis, foliar, Test 1, foliar spray on squash, disease control rating at 400 ppm / 100 ppm, read-out: DOWN MDEW): 90 to 100%; pest or weed control at 400 ppm ([3]; Pyricularia oryzae, foliar, read-out: RICE BLAST, Test 1, foliar spray on rice, disease control rating at 400 ppm / 100 ppm): 90 to 100%; pest or weed control at 400 ppm ([4]; Blumeria graminis, foliar, Test 1, foliar spray on wheat, disease control rating at 400 ppm / 100 ppm, read-out: POWD MDEW): 90 to 100%; pest or weed control at 400 ppm [5]: 0 to 19%; activity against a broad spectrum of plant pathogens (plant pathogens): particularly excellent activity; pest or weed control at 400 ppm [6]: 20 to 89%; mortality at 200 ppm [7, 21]: 0%; pest or weed control at 400 ppm [8]: 20 to 89%; pest or weed control at 400 ppm ([10]; Puccinia recondita, foliar, Test 1, foliar spray on wheat, disease control rating at 400 ppm / 100 ppm): 90 to 100%
